Species on record: Rattus norvegicus
Assay: DrugMatrix - Regimen: Daily Repeat
Format: toxicity, organism-based, Sprague-Dawley
Parameters: regimen Daily Repeat, gender Male, age 6-8 weeks
Details: in vivo, po, route oral GAVAGE, […]; for ABSOLUTE BASOPHIL / ABSOLUTE EOSINOPHIL / ABSOLUTE LYMPHOCYTE / ABSOLUTE MONOCYTE / ABSOLUTE SEGMENTED NEUTROPHIL / BASOPHIL / EOSINOPHIL / ERYTHROCYTE COUNT / HEMATOCRIT / HEMOGLOBIN / LEUKOCYTE COUNT / LYMPHOCYTE / MEAN CORPUSCULAR HEMOGLOBIN / MEAN CORPUSCULAR HEMOGLOBIN CONCENTRATION / MEAN CORPUSCULAR VOLUME / MONOCYTE / NEUTROPHIL / NUCLEATED RED BLOOD CELLS / PLATELET COUNT: tissue Blood; for ALANINE AMINOTRANSFERASE / ALBUMIN / ALKALINE PHOSPHATASE / ASPARTATE AMINOTRANSFERASE / BLOOD UREA NITROGEN / CARBON DIOXIDE / CHLORIDE / CHOLESTEROL / CREATINE PHOSPHOKINASE / CREATININE / GLUCOSE / LACTATE DEHYDROGENASE / LIPASE / PHOSPHORUS / POTASSIUM / SODIUM / TOTAL BILIRUBIN / TOTAL PROTEIN / URIC ACID: tissue Plasma
[1] = 0 mg/kg, 72 h, dose level Control, time 3 day
[2] = 0 mg/kg, 120 h, dose level Control, time 5 day
[3] = 35 mg/kg, 72 h, dose level Low, time 3 day
[4] = 35 mg/kg, 120 h, dose level Low, time 5 day

CC(=O)Oc1ccccc1C(=O)O [ASPIRIN]
ABSOLUTE BASOPHIL [1]: 0 CELLS/uL
ABSOLUTE EOSINOPHIL [1]: 0 CELLS/uL
ABSOLUTE LYMPHOCYTE [1]: 6275.67 CELLS/uL
ABSOLUTE MONOCYTE [1]: 40.67 CELLS/uL
ABSOLUTE SEGMENTED NEUTROPHIL [1]: 633.67 CELLS/uL
BASOPHIL [1]: 0%
EOSINOPHIL [1]: 0%
ERYTHROCYTE COUNT [1]: 5.2 x10E6/uL
HEMATOCRIT [1]: 32.78%
HEMOGLOBIN [1]: 12.98 G/DL
LEUKOCYTE COUNT [1]: 6.95 x10E3/uL
LYMPHOCYTE [1]: 90.17%
MEAN CORPUSCULAR HEMOGLOBIN [1]: 24.97 pg
MEAN CORPUSCULAR HEMOGLOBIN CONCENTRATION [1]: 39.62 G/DL
MEAN CORPUSCULAR VOLUME [1]: 63.03 fL
MONOCYTE [1]: 0.67%
NEUTROPHIL [1]: 9.17%
NUCLEATED RED BLOOD CELLS [1]: 0 /100WBC
PLATELET COUNT [1]: 1082.83 x10E3/uL
ALANINE AMINOTRANSFERASE [1]: 69.67 u/L
ALBUMIN [1]: 4.15 G/DL
ALKALINE PHOSPHATASE [1]: 430.5 u/L
ASPARTATE AMINOTRANSFERASE [1]: 90.83 u/L
BLOOD UREA NITROGEN [1]: 13 mg/dL
CARBON DIOXIDE [1]: 33 mmol/L
CHLORIDE [1]: 99.17 MEQ/L
CHOLESTEROL [1]: 70.5 mg/dL
CREATINE PHOSPHOKINASE [1]: 253.33 u/L
CREATININE [1]: 0.13 mg/dL
GLUCOSE [1]: 157.17 mg/dL
LACTATE DEHYDROGENASE [1]: 85 u/L
LIPASE [1]: 10 u/L
PHOSPHORUS [1]: 10.2 mg/dL
POTASSIUM [1]: 5.78 MEQ/L
SODIUM [1]: 144.12 MEQ/L
TOTAL BILIRUBIN [1]: 0.2 mg/dL
TOTAL PROTEIN [1]: 5.8 G/DL
URIC ACID [1]: 0.8 mg/dL
ABSOLUTE BASOPHIL [2]: 0 CELLS/uL
ABSOLUTE EOSINOPHIL [2]: 0 CELLS/uL
ABSOLUTE LYMPHOCYTE [2]: 10431 CELLS/uL
ABSOLUTE MONOCYTE [2]: 90.5 CELLS/uL
ABSOLUTE SEGMENTED NEUTROPHIL [2]: 1111.83 CELLS/uL
BASOPHIL [2]: 0%
EOSINOPHIL [2]: 0%
ERYTHROCYTE COUNT [2]: 5.51 x10E6/uL
HEMATOCRIT [2]: 34.67%
HEMOGLOBIN [2]: 13.5 G/DL
LEUKOCYTE COUNT [2]: 11.63 x10E3/uL
LYMPHOCYTE [2]: 89.67%
MEAN CORPUSCULAR HEMOGLOBIN [2]: 24.5 pg
MEAN CORPUSCULAR HEMOGLOBIN CONCENTRATION [2]: 38.95 G/DL
MEAN CORPUSCULAR VOLUME [2]: 62.87 fL
MONOCYTE [2]: 0.67%
NEUTROPHIL [2]: 9.67%
NUCLEATED RED BLOOD CELLS [2]: 0 /100WBC
PLATELET COUNT [2]: 1052.67 x10E3/uL
ALANINE AMINOTRANSFERASE [2]: 54.67 u/L
ALBUMIN [2]: 4.15 G/DL
ALKALINE PHOSPHATASE [2]: 359.83 u/L
ASPARTATE AMINOTRANSFERASE [2]: 83 u/L
BLOOD UREA NITROGEN [2]: 13.5 mg/dL
CARBON DIOXIDE [2]: 27.17 mmol/L
CHLORIDE [2]: 98.5 MEQ/L
CHOLESTEROL [2]: 66.83 mg/dL
CREATINE PHOSPHOKINASE [2]: 256.17 u/L
CREATININE [2]: 0.19 mg/dL
GLUCOSE [2]: 171.33 mg/dL
LACTATE DEHYDROGENASE [2]: 91.5 u/L
LIPASE [2]: 10.5 u/L
PHOSPHORUS [2]: 8.72 mg/dL
POTASSIUM [2]: 5.34 MEQ/L
SODIUM [2]: 142.53 MEQ/L
TOTAL BILIRUBIN [2]: 0.2 mg/dL
TOTAL PROTEIN [2]: 6.05 G/DL
URIC ACID [2]: 0.6 mg/dL
ABSOLUTE BASOPHIL [3]: 0 CELLS/uL
ABSOLUTE EOSINOPHIL [3]: 58.67 CELLS/uL
ABSOLUTE LYMPHOCYTE [3]: 9448 CELLS/uL
ABSOLUTE MONOCYTE [3]: 29.33 CELLS/uL
ABSOLUTE SEGMENTED NEUTROPHIL [3]: 530.67 CELLS/uL
BASOPHIL [3]: 0%
EOSINOPHIL [3]: 0.67%
ERYTHROCYTE COUNT [3]: 4.69 x10E6/uL
HEMATOCRIT [3]: 30.17%
HEMOGLOBIN [3]: 12.1 G/DL
LEUKOCYTE COUNT [3]: 10.07 x10E3/uL
LYMPHOCYTE [3]: 93.33%
MEAN CORPUSCULAR HEMOGLOBIN [3]: 25.83 pg
MEAN CORPUSCULAR HEMOGLOBIN CONCENTRATION [3]: 40.1 G/DL
MEAN CORPUSCULAR VOLUME [3]: 64.4 fL
MONOCYTE [3]: 0.33%
NEUTROPHIL [3]: 5.67%
NUCLEATED RED BLOOD CELLS [3]: 0 /100WBC
PLATELET COUNT [3]: 951 x10E3/uL
ALANINE AMINOTRANSFERASE [3]: 86 u/L
ALBUMIN [3]: 4.17 G/DL
ALKALINE PHOSPHATASE [3]: 369 u/L
ASPARTATE AMINOTRANSFERASE [3]: 104.67 u/L
BLOOD UREA NITROGEN [3]: 13.5 mg/dL
CARBON DIOXIDE [3]: 32 mmol/L
CHLORIDE [3]: 101.33 MEQ/L
CHOLESTEROL [3]: 79.33 mg/dL
CREATINE PHOSPHOKINASE [3]: 304 u/L
CREATININE [3]: 0.15 mg/dL
GLUCOSE [3]: 156 mg/dL
LACTATE DEHYDROGENASE [3]: 85.33 u/L
LIPASE [3]: 23.33 u/L
PHOSPHORUS [3]: 9.53 mg/dL
POTASSIUM [3]: 5.79 MEQ/L
SODIUM [3]: 145.73 MEQ/L
TOTAL BILIRUBIN [3]: 0.2 mg/dL
TOTAL PROTEIN [3]: 5.7 G/DL
URIC ACID [3]: 0.53 mg/dL
ABSOLUTE BASOPHIL [4]: 0 CELLS/uL
ABSOLUTE EOSINOPHIL [4]: 0 CELLS/uL
ABSOLUTE LYMPHOCYTE [4]: 9532 CELLS/uL
ABSOLUTE MONOCYTE [4]: 142 CELLS/uL
ABSOLUTE SEGMENTED NEUTROPHIL [4]: 926 CELLS/uL
BASOPHIL [4]: 0%
EOSINOPHIL [4]: 0%
ERYTHROCYTE COUNT [4]: 5.39 x10E6/uL
HEMATOCRIT [4]: 34.33%
HEMOGLOBIN [4]: 13.4 G/DL
LEUKOCYTE COUNT [4]: 10.6 x10E3/uL
LYMPHOCYTE [4]: 90%
MEAN CORPUSCULAR HEMOGLOBIN [4]: 24.83 pg
MEAN CORPUSCULAR HEMOGLOBIN CONCENTRATION [4]: 39.03 G/DL
MEAN CORPUSCULAR VOLUME [4]: 63.63 fL
MONOCYTE [4]: 1.33%
NEUTROPHIL [4]: 8.67%
NUCLEATED RED BLOOD CELLS [4]: 0 /100WBC
PLATELET COUNT [4]: 1012.67 x10E3/uL
ALANINE AMINOTRANSFERASE [4]: 59 u/L
ALBUMIN [4]: 4.1 G/DL
ALKALINE PHOSPHATASE [4]: 356.67 u/L
ASPARTATE AMINOTRANSFERASE [4]: 89.33 u/L
BLOOD UREA NITROGEN [4]: 11.33 mg/dL
CARBON DIOXIDE [4]: 27.67 mmol/L
CHLORIDE [4]: 98.67 MEQ/L
CHOLESTEROL [4]: 69 mg/dL
CREATINE PHOSPHOKINASE [4]: 329.67 u/L
CREATININE [4]: 0.17 mg/dL
GLUCOSE [4]: 164.33 mg/dL
LACTATE DEHYDROGENASE [4]: 89 u/L
LIPASE [4]: 11.67 u/L
PHOSPHORUS [4]: 9.13 mg/dL
POTASSIUM [4]: 5.65 MEQ/L
SODIUM [4]: 145.03 MEQ/L
TOTAL BILIRUBIN [4]: 0.2 mg/dL
TOTAL PROTEIN [4]: 6.13 G/DL
URIC ACID [4]: 0.57 mg/dL
